Measured values reported in US8785419B2, “Cavity induced allosteric modification of intermolecular interactions and methods of identifying compounds that effect the same” (The Trustees Of The University Of Pennsylvania, priority 1998, dated 2014).

Test system: T cell activation associated with MHC/antigen/TCR complexes
Assay: In vitro T cell activation assays
Type: cell-based

O=C(CNC(=O)N1CCCC1)NNC(=O)Nc1ccc2ccccc2c1 [Formula IV]
activity in in vitro T cell activation assays: showed activity
